Test results taken from PubChem BioAssay (NCI).
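48-hour exposure; five concentrations; linearly interpolated endpoints. The concentration for full growth arrest is given as TGI.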

Columns and labels:
Assay in all cases: NCI tumour cell line growth inhibition, 48 h
DMS 273 small cell lung = test system: DMS 273 small cell lung
P388/ADR leukemia = test system: P388/ADR leukemia
SN12K1 renal = test system: SN12K1 renal
SNB-78 CNS = test system: SNB-78 CNS
XF 498 CNS = test system: XF 498 CNS
RXF-631 renal = test system: RXF-631 renal
MDA-N = test system: MDA-N

Compound | TGI (DMS 273 small cell lung) [µM] | TGI (P388/ADR leukemia) [µM] | TGI (SN12K1 renal) [µM] | TGI (SNB-78 CNS) [µM] | TGI (XF 498 CNS) [µM] | TGI (RXF-631 renal) [µM] | TGI (MDA-N) [µM]
C/C=C1/C(=O)O[C@]23C=C[C@@H]4C(C(=O)OC)=CO[C@H](O[C@@H]12)[C@@H]43 | 39.9 | 2.41 | 3.22 | 23.6 | 3.37 |  | 
O=C1NC(=O)C2(CCc3ccc(N(CCCl)CCCl)cc32)N1 (stereo not given) | 16 | 36.7 | 37.1 | > 100 |  |  | 
CC1CC(c2ccc([N+](=O)[O-])cc2)=Nc2ccccc2S1=O (stereo not given) | 42.7 |  |  | > 100 | 95.1 | 52.6 | 
CC(=O)O[C@@H]1CN(S(=O)(=O)c2ccc(C)cc2)C[C@@H]1C1CCCCC1 |  |  |  |  |  |  | 54.7
COc1ccc2oc3c(ccc[n+]3C)c(=O)c2c1 |  |  |  |  |  |  | > 100
COc1cc2c(cc1O)N=C[C@@H]1CCC(O)N1C2=O (mixture of isomers) | 19.6 | 5.15 | 25 | 46.3 | 1.2 |  | 
